Several values for one entry are separate records, joined by “and”; a condition that tells them apart may be missing. Equal entries are not always repeated.
Assay: molar heat capacity at constant pressure
Settings: 101.33 kPa, Small (less than 1 g) adiabatic calorimetry

N[C@@H](Cc1c[nH]c2ccccc12)C(=O)O [L-tryptophan]
molar heat capacity at constant pressure
Settings	Crystal	Crystal 1
65.73 K	65.32 J/K/mol	–
66.54 K	65.98 J/K/mol	–
67.34 K	66.53 J/K/mol	–
68.15 K	67.1 J/K/mol	–
68.95 K	67.91 J/K/mol	–
69.75 K	68.59 J/K/mol	–
70 K	68.68 J/K/mol	–
70.56 K	69.1 J/K/mol	–
71.35 K	69.78 J/K/mol	–
72.16 K	70.26 J/K/mol	–
72.96 K	70.81 J/K/mol	–
73.76 K	71.51 J/K/mol	–
74.56 K	72.19 J/K/mol and 72.19 J/K/mol	–
75.36 K	72.76 J/K/mol	–
76.16 K	73.55 J/K/mol and 73.54 J/K/mol	–
76.96 K	74.19 J/K/mol	–
77.76 K	74.88 J/K/mol and 74.88 J/K/mol	–
77.81 K	74.18 J/K/mol	–
77.91 K	74.86 J/K/mol	–
77.92 K	74.32 J/K/mol	–
78.27 K	74.94 J/K/mol	–
78.42 K	75.32 J/K/mol	–
78.45 K	75.01 J/K/mol	–
78.56 K	75.5 J/K/mol	–
78.82 K	75.44 J/K/mol	–
78.84 K	74.99 J/K/mol	–
78.87 K	75.62 J/K/mol	–
79.2 K	75.99 J/K/mol	71.01 J/K/mol
79.22 K	75.33 J/K/mol	–
79.24 K	75.75 J/K/mol	–
79.33 K	76.02 J/K/mol	–
79.36 K	76.16 J/K/mol	–
79.37 K	76.15 J/K/mol	–
79.62 K	–	70.64 J/K/mol
79.64 K	–	70.29 J/K/mol
79.68 K	–	70.63 J/K/mol
80 K	–	71.09 J/K/mol
80.02 K	–	71.26 J/K/mol
80.04 K	–	70.54 J/K/mol
80.14 K	–	70.97 J/K/mol
80.17 K	–	71.35 J/K/mol and 71.35 J/K/mol
80.19 K	–	71.22 J/K/mol
80.41 K	–	71.6 J/K/mol
80.43 K	–	70.98 J/K/mol
80.48 K	–	71.27 J/K/mol
80.81 K	–	72.02 J/K/mol
80.83 K	–	71.17 J/K/mol
80.94 K	–	71.85 J/K/mol
80.98 K	–	72.02 J/K/mol and 72.02 J/K/mol
80.99 K	–	72 J/K/mol
81.21 K	–	72.51 J/K/mol
81.23 K	–	71.92 J/K/mol
81.28 K	–	72.06 J/K/mol
81.61 K	–	72.57 J/K/mol
81.63 K	–	72.55 J/K/mol
81.74 K	–	72.46 J/K/mol
81.79 K	–	72.78 J/K/mol and 72.65 J/K/mol and 72.78 J/K/mol
82 K	–	72.93 J/K/mol
82.02 K	–	72.8 J/K/mol
82.08 K	–	72.96 J/K/mol
82.42 K	–	73.44 J/K/mol
82.55 K	–	73.18 J/K/mol
82.59 K	–	73.58 J/K/mol and 73.47 J/K/mol and 73.58 J/K/mol
82.82 K	–	73.8 J/K/mol
82.88 K	–	73.57 J/K/mol
83.22 K	–	74.06 J/K/mol
83.35 K	–	74 J/K/mol
83.4 K	–	74.08 J/K/mol
83.68 K	–	74.24 J/K/mol
84.15 K	–	74.8 J/K/mol
84.2 K	–	74.77 J/K/mol
84.49 K	–	74.98 J/K/mol
84.95 K	–	75.46 J/K/mol
85 K	–	75.41 J/K/mol
85.29 K	–	75.62 J/K/mol
85.8 K	–	76.16 J/K/mol
86.6 K	–	77.02 J/K/mol
87.4 K	–	77.55 J/K/mol
88.21 K	–	78.21 J/K/mol
89.01 K	–	78.75 J/K/mol
89.81 K	–	79.34 J/K/mol
90 K	–	79.57 J/K/mol
90.61 K	–	80.12 J/K/mol
91.41 K	–	80.65 J/K/mol
92.22 K	–	81.07 J/K/mol
93.02 K	–	81.81 J/K/mol
93.82 K	–	82.48 J/K/mol
94.62 K	–	83.08 J/K/mol
95.43 K	–	83.56 J/K/mol
96.23 K	–	84.06 J/K/mol
97.03 K	–	84.89 J/K/mol
97.83 K	–	85.56 J/K/mol
98.64 K	–	86.05 J/K/mol
99.44 K	–	86.39 J/K/mol
100 K	–	86.89 J/K/mol
100.24 K	–	86.97 J/K/mol
101.04 K	–	87.55 J/K/mol
101.84 K	–	88.13 J/K/mol
102.65 K	–	88.72 J/K/mol
103.45 K	–	89.38 J/K/mol
104.25 K	–	89.71 J/K/mol
105.05 K	–	90.38 J/K/mol
105.85 K	–	91.04 J/K/mol
106.65 K	–	91.46 J/K/mol
107.45 K	–	91.87 J/K/mol
108.25 K	–	92.54 J/K/mol
109.05 K	–	93.12 J/K/mol
109.85 K	–	93.62 J/K/mol
110 K	–	93.7 J/K/mol
110.66 K	–	94.2 J/K/mol
111.46 K	–	94.78 J/K/mol
112.26 K	–	95.2 J/K/mol
113.06 K	–	95.87 J/K/mol
113.86 K	–	96.36 J/K/mol
114.66 K	–	96.61 J/K/mol
115.47 K	–	97.36 J/K/mol
116.27 K	–	97.7 J/K/mol
117.07 K	–	98.61 J/K/mol
117.87 K	–	99.11 J/K/mol
118.67 K	–	99.69 J/K/mol
119.47 K	–	100.27 J/K/mol
120 K	–	100.44 J/K/mol
120.28 K	–	100.85 J/K/mol
121.08 K	–	101.19 J/K/mol
121.88 K	–	101.85 J/K/mol
122.68 K	–	102.27 J/K/mol
123.49 K	–	102.77 J/K/mol
